Measurements published in patent US20110229553A1, “Plant Extract with Pharmacological Profile for Treating or Preventing Diseases, Dysfunctions and Disorders of the Central Nervous System, Neurodegenerative Disorders and Sequel from Vascular Dementia” (priority 2010, published 2011).

Tested on: BALB/c mice MPTP induced tremor
Assay: MPTP-induced tremor in BALB/c mice
Type: in vivo
Conditions: extract 25 or 50 mg/kg, apomorphine 3 mg/kg
Protocol: Animals: Male adult mice, C57BL/6 and BALB/c strain (FEEPS) were used and maintain with water and foot ad libitum under controlled environment.
Treatments in BALB/c: MPTP (1-methyl-4-phenyl-1,2,3,6-tetrahydropyridine) 60 mg/kg (2×30 mg/kg) was administered intraperitonially (i.p.), twice, 16 h apart. Saline, DMSO 20%, Ptychopetalum olacoides extract 50 mg/kg (2×25 mg/kg), POEE 25 mg/kg (2×12.5 mg/kg) and apomorphine 3 mg/kg (2×1.5 mg/kg) were given 30 min before each MPTP administration. The animals received the first injections at 17:00 h and the second at 09:00 h the next day. The volume of injection was […] body weight. N=6.
Tremor in C57BL/6 and in BALB/c: Tremors were observed immediately after the administration of the second MPTP dose, with animals placed in a clear Plexiglas box (20 cm×20 cm×20 cm) for 45 min; tremor scores were noted every 3 min, with the highest score considered for the period. […]

With `CN1CCc2cccc3c2[C@H]1Cc1ccc(O)c(O)c1-3` [apomorphine] the total tremor duration was “not affected”.
